EP1655287A1, “PROBE FOR DISEASES WITH AMYLOID ACCUMULATION, AMYLOID-STAINING AGENT, REMEDY AND PREVENTIVE FOR DISEASES WITH AMYLOID ACCUMULATION AND DIAGNOSTIC PROBE AND STAINING AGENT FOR NEUROFIBRILLARY CHANGE” (priority 2003, dated 2005)
Like-named read-outs stand apart in the source and are kept apart here.

Legend:
[1] = test system: Amyloid β-protein; test: Screening of the degree of β-structure recognition (fluorescence, in the presence of Congo red); assay type: binding; conditions: test compound 5 µM, amyloid β-protein 5 µM, Congo red 0.1 µM, phosphate buffer pH 7.4
[2] = biological target: T1, senile plaques (Homo sapiens, UniProt P05067); test: Staining of senile plaques and diffuse plaques in brain sections, compared with thioflavin S, BSB or anti-Aβ antibody 6F/3D immunostaining; assay type: binding, patient with Alzheimer's disease; conditions: 100 µM compound in 50% ethanol; for staining properties in sections of the brain of a patient with Alzheimer's disease: compared with thioflavin S (and BSB) on adjacent sections; for staining properties compared with immunostaining of anti-Aβ antibody 6F/3D: adjacent sections immunostained with 6F/3D
T1 construct: The former has, as the main component, amyloid β-protein (Aβ protein) taking β-sheet structures; from tissue; host or cells: paraffin-embedded temporal lobe or hippocampus sections of an Alzheimer's disease patient's brain (Fukushimura Hospital)
T1 sequence (P05067 672-713 limits assumed): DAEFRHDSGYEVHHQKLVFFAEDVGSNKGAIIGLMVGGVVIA
Text: The following explanation is made about testing of staining properties of the compounds of the present invention on brain sections of an Alzheimer's disease patient. • (1) Temporal lobe or hippocampus specimens of the brain of a patient who had been definitely diagnosed pathologically as Alzheimer's disease and of a normal aged individual were used. These specimens were provided from Fukushimura Hospital, our joint research facility, with the consent to their use for research purpose received from the bereaved family of the patient (BF Research Laboratories Institutional Ethics Board Permission No. RS-99-02). • (2) The brain tissues embedded in paraffin were sliced 6 or 8 µm thick, extended on slides, and dried. The paraffin-embedded brain sections were deparaffined by washing sequentially with xylene (10 minutes, twice), 100% ethanol (15 minutes, twice), 95% ethanol (15 minutes, twice), and a stream of water (10 minutes). • (3) Pre-treatment for staining with compounds of the present invention involved treating the sections for eliminating self-fluorescence due to lipofuscin. First, the deparaffined sections were immersed into a 10% formalin solution for 60 minutes and washed with PBS for 5 minutes, followed by immersion into a 0.25% solution of KMnO4 for 90 minutes. After washing twice with PBS for 2 minutes each, the sections were immersed into a solution of 0.1% K2S2O5/oxalic acid for about 30 seconds each, and then washed three times with PBS for 2 minutes each. • (4) About 150 µl of a 100 µM solution of a compound of the present invention dissolved in 50% ethanol was added dropwise onto the sections and allowed the reaction to be carried out for 10 minutes. The sections were dipped into tap water five times, and then 50% ethanol three to five times, followed by immediate classification. After that, the sections were immersed into PBS for 60 minutes, enclosed with Fluor Save Reagent (Calbiochem), and examined under a fluorescent microscope (Nikon, Eclips E800). Pictures were taken using a digital camera (Plaroid PDMCII).
Immunostaining was carried out as follows. • (a) Procedures for immunostaining amyloid β-protein: • (1) After the sections were deparaffined, the sections were washed twice in distilled water for 2 minutes each, and tissues were marked with an Immunopen. About 150 µl of formic acid was added dropwise and allowed to stand at room temperature for 5 minutes. The sections were washed with tap water for 5 minutes and immersed into cold PBS-Tween 20 for 2 minutes, and then about 150 µl of a 0.05% trypsin solution was added dropwise and allowed the reaction to be carried out at 37°C for 15 minutes. • (2) In an ice bath, the sections were washed twice with cold PBS-Tween 20 for 5 minutes each, and two drops of blocking serum were added and allowed the reaction to be carried out at 37°C for 15 minutes. Excess water was removed, and about 150 µl of 6F/3D, an antibody specific to amyloid β-protein (DAKO; diluted 1:50) was added dropwise and allowed the reaction to be carried out at 37°C for 1 hour. • (3) Further, after washing five times with cold PBS-Tween 20 for 2 minutes each, two drops of a solution of goat antimouse IgG (H+L) conjugated to biotin were added and allowed the reaction to be carried out at 37°C for 1 hour. After that, the sections were washed three times with cold PBS-Tween 20 for 2 minutes each, and two drops of ABS solution (a streptavidin-biotin-peroxidase complex solution) were added and allowed to stand for 30 minutes. The sections were again washed three times with cold PBS-Tween 20 for 2 minutes each, and about 150 µl of DAB solution (prepared by dissolving 10 mg of DAB in 20 ml of 0.05 mol/l Tris-HCl buffer and adding 100 µl of 3% hydrogen peroxide immediately before use) were added and allowed the color to be developed sufficiently. Then, the sections were washed with distilled water for 1 minute to stop the reaction, enclosed, and examined under a microscope.

[3] = Acute toxicity testing, intravenous administration; assay type: in vivo; conditions: male Crj:CD1 mice, via tail vein, observed up to 7 days; for MTD at 168 h: mouse, in vivo, iv, read-out: Maximum Tolerated Dose (mg/kg, intravenous administration)
Procedure: The following explanation is made of testing methods for properties of the compounds of the present invention. (A) Testing of acute toxicity Acute toxicity of the inventive compounds was determined employing mice by intravenous administration. Male Crj:CD1 mice were used and divided into groups of 4 mice, with an average weight of each group of 31-32 g. […] Up to 7 days after administration, observations were made.

[4] = mouse, in vivo, iv, 2 min
Procedure: (§1) (B) Testing of blood-brain barrier permeability Measurements of blood-brain barrier permeability were made according to the following procedures. Compounds of the present invention were intravenously administered to mice to determine their in vivo blood-brain barrier permeability. • (1) Mice utilized Slc:ICR weighing 30-40 g (7 weeks old, n=3) (Nippon SLC). • (2) A test compound was dissolved in a mixture of 1N HCl, polyethylene glycol 400, and DMSO, or in DMSO or ethyl alcohol, and then diluted with purified water, and injected via tail vein. Two minutes after administration, the mice, under ether anesthesia, were subjected to taking blood from the abdominal aorta with a heparin-treated syringe and removing the brain. • (3) After taking blood, blood samples were centrifuged at 14,000 rpm at 4°C for 10 minutes, and their supernatants were kept at -80°C as plasma sample. The brain (including cerebellum) was kept at -80°C after its removal. • (4) The plasma sample, when used, was thawed, diluted with purified water, and then applied to a conditioned C18 solid-phase extraction cartridge (bond elute C18, 200 mg, Varian), followed by elution with methyl alcohol. Alternatively, after thawing the plasma sample, a diethyl ether/cyclohexane mixture was added, and the mixture was shaken, and then centrifuged to separate an oil layer. • (5) The brain material, when used, was subjected to measuring its wet weight with the brain remaining frozen, and saline was added to the brain for homogenization. The homogenate was centrifuged for 10 minutes, and the supernatant was applied to a conditioned C18 solid-phase extraction cartridge and eluted with methyl alcohol. Alternatively, after measuring the wet weight of the frozen brain, a diethyl ether/cyclohexane mixture was added to the brain, and the mixture was homogenized, shaken, and then centrifuged to separate an oil layer. • (6) The absorbance and fluorescence were detected employing high performance liquid chromatography. • (7) For each of the plasma and brain, the content of the test compound in the plasma or brain (%ID (injected dose)/ml or g) was determined, relative to the administered dose.

[5] = Blood-brain barrier permeability after intravenous administration; conditions: for Plasma: mice, content in plasma two minutes after intravenous administration; for tissue uptake at 2 min: mouse, brain, iv
Procedure: as §1

Molecule	Degree of β-structure recognition (%) [1] [%]	staining properties in sections of the brain of a patient with Alzheimer's disease [2]	Maximum Tolerated Dose (mg/kg, intravenous administration) [3]	Brain [4]	Plasma [4]	staining properties compared with immunostaining of anti-Aβ antibody 6F/3D [2]	MTD at 168 h [3] [mg/kg]	Plasma [5]	tissue uptake at 2 min [5] [%ID/g]
2-[2-(5-dimethylaminothiazol-2-yl)ethenyl]benzoxazole [BF-215]	82.6	stains senile plaques	≧ 10 mg/kg	8.8 %ID/g or ml	2.5 %ID/g or ml	–	–	–	–
CN(C)c1ncc(/C=C/c2nc3ccccc3o2)s1 [BF-197, 2-[2-(2-dimethylaminothiazol-5-yl)ethenyl]benzoxazole]	71.8	mainly stains senile plaques	–	–	–	stains senile plaques	≥ 10	1.9 %ID/g or ml	15
Cc1nc(/C=C/c2cnc(N(C)C)s2)oc1C [BF-214, 2-(dimethylamino)-5-[2-(4,5-dimethyloxazol-2-yl)ethenyl]thiazole]	58.9	stains senile plaques	–	–	–	–	≥ 10	2.1 %ID/g or ml	8.8
CN(C)c1ncc(/C=C/c2nc3ccc(OCCF)cc3o2)s1 [BF-227, 2-[2-(2-dimethylaminothiazol-5-yl)ethenyl]-6-(2-fluoroethyloxy)benzoxazole]	70.2	mainly stains senile plaques	–	–	–	stains senile plaques (Fig. 16, wedge-shaped arrowheads) and diffuse plaques	≥ 10	2.1 %ID/g or ml	7.9
